How the values were obtained:
[1] = molecular target: T1, GST-tagged Eg5 motor domain (Homo sapiens, UniProt P52732); assay: ADP-Glo Eg5 assay (4.8 μM ATP); assay type: biochemical; conditions: preformed microtubules, 4.8 μM ATP (Table 4)
T1 construct: 4 nM GST-tagged Eg5 motor domain protein (Cytoskeleton, EG01); purchased Cytoskeleton EG01
T1 sequence (P52732 18-359 limits assumed): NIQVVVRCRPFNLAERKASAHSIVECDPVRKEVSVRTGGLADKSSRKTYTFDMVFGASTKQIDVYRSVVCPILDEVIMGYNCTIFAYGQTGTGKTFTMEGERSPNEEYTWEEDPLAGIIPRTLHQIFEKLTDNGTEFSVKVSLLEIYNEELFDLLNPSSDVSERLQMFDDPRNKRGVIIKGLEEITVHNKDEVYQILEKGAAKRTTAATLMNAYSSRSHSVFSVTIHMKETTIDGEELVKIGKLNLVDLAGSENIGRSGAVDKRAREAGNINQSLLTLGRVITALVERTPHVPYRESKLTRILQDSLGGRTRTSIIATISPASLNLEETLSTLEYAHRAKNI
Protocol: (§1) The HSET or Eg5 ATPase activity was measured using the ADP-Glo Kinase Assay kit (Promega, V9102). The assays were run using final concentrations of 5 nM full-length human N-terminal His-tag HSET or 4 nM GST-tagged Eg5 motor domain protein (Cytoskeleton, EG01) and an assay buffer containing 20 mM HEPES pH 6.8, 10 mM MgCl2, 0.25 mM EGTA, 0.4 mM Triton X-100, and 1 mM DTT. Preformed microtubules (Universal Biologicals Cambridge, bovine MT001-XL, or porcine MT002-XL), which were reconstituted in 15 mM PIPES pH 7, 1 mM MgCl2, and 20 μM paclitaxel, were present at a final assay concentration of 70 μg/mL. A reaction volume of 5 μL was used in Proxiplate 384 plus white assay plates (PerkinElmer, 6008280). To measure compound inhibition, 100 nL of compound dissolved in DMSO or DMSO alone was preincubated with the HSET and microtubules for 10 min before 3 μM Ultra-Pure ATP was added to start the ATPase reaction for the 3 μM ATP HSET assay. For the 500 μM ATP HSET assay, the addition of 500 μM Ultra-Pure ATP was used. For the Eg5 ATPase assay, 4.8 μM Ultra-Pure ATP was used. All reactions were incubated at 25 °C for 80 min and then stopped by the addition of 5 μL of the ADP-Glo reagent. 10 μL of Kinase Detection Reagent was then added after a further 45 min of incubation. The luminescence was read after 45 min on a PheraStar FSX plate reader (BMG Labtech). The data processing was performed using Dotmatics Studies software package. Percentage inhibition was determined based on normalization to high controls (0% inhibition, all reagents with 100 nL of DMSO alone) and low controls (100% inhibition […], without HSET). The IC50 values for each compound were determined using a four-parameter logistic curve fit of % inhibition versus concentration.

[2] = molecular target: T2, recombinant full-length HSET (Homo sapiens, UniProt Q9BW19); assay: ADP-Glo HSET assay (500 μM ATP); assay type: biochemical; conditions: high ATP concentration of 500 μM; single determination or mean of two
T2 construct: 5 nM full-length human N-terminal His-tag HSET; His-tag (N)
T2 sequence (Q9BW19 1-673): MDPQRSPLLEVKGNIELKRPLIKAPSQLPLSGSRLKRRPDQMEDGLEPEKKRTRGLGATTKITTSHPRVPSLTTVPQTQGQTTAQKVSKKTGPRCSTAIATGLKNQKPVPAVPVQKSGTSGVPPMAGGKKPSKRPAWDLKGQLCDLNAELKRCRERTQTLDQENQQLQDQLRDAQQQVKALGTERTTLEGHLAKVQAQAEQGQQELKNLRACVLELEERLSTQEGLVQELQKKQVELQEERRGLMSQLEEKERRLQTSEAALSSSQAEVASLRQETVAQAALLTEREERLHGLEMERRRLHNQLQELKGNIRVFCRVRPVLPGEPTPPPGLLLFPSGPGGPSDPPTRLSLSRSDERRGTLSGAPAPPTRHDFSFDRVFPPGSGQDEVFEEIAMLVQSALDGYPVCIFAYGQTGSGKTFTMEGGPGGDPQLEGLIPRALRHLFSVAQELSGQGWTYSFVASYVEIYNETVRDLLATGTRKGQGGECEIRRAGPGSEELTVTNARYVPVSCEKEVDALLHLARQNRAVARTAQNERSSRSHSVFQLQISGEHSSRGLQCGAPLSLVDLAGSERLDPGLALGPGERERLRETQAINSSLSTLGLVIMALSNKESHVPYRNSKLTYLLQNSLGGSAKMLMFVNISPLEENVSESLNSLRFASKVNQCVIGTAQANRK
Protocol: as §1

[3] = molecular target: T2, recombinant full-length HSET; assay: ADP-Glo HSET assay (3 μM ATP), microtubule-stimulated ATPase; assay type: biochemical; conditions: for IC50: preformed microtubules, 3 μM ATP, read-out: HSET ADP-Glo IC50
Protocol: as §1

[4] = test system: non-centrosome amplified DLD1 (4N) cells; assay: Multipolar spindle assay (4N cell line); assay type: cell-based, human
Description: (§2) The cellular models consisted of chromosomally stable human colon cancer DLD1 diploid (2N) and tetraploid (4N) cells, along with tetraploid centrosome -amplified (4NCA) DLD1 cells and DLD1 HSET knockout (KO) cells. DLD1 2N and 4N cells were generated and characterized as previously described.[27],[41],[42] In order to generate 4NCA cells, we used dihydro-cytochalasin B (DCB) to transiently block cytokinesis and induce tetraploidisation and centrosome amplification in DLD1 cells. Centrosome amplification in 4NCA cells is transient and therefore they were generated from 2N cells for each run of the assay.[27] The DLD1 HSET KO cells were knockout clones generated by CRISPR and validated by sequencing to have a homozygous deletion in the KIFC1 gene.
(§3) Inhibition of HSET-mediated clustering was measured using a phenotypic assay measuring the formation of multipolar metaphase spindles in DLD1 cells with (4NCA) or without (4N) centrosome amplification. 4NCA cells were generated by treating 2N DLD1 cells with 2 μΜ DCB for 24 h, washed, and released in growth media for 24 h. 4N and 4NCA DLD1 cells were plated in 96-well ibidi μ-Clear plates (IB-89626, ibidi) with a no. 1.5 polymer coverslip bottom with optimal imaging properties. To enrich the mitotic population, cells were first treated for 3.5 h with 8 μM pro-TAME (I-440-01M, R&D system), an inhibitor of APC/C that transiently arrests cells in metaphase without affecting the structure of the spindle. Following the initial arrest, cells were treated with HSET compounds in the presence of 8 μM MG-132 (S2619, SelleckChem), a proteasome inhibitor that helps to maintain the metaphase arrest, where the number of spindle poles/cell can be optimally quantified by an automated segmentation analysis.
(§4) Cells were then fixed in methanol and stained for 3 h for mitotic pole marker aurora A (1:1000 610939 mouse anti-IAK1, BD Biosciences) and phosphorylated histone H3 (1:1500 ab47297 anti-histone H3 pS10, Abcam) as a marker of mitotic cells in 1.5% FBS in PBS. Following primary antibody treatment, cells were incubated with secondary antibodies Alexa Fluor 488 goat antimouse and Alexa Fluor 555 goat antirabbit (1:1500, A11029 and A21429, respectively, Life Technologies) together with 1 μg/mL DAPI (D9542, Sigma) in 1.5% FBS in PBS. Image acquisition was performed at 10× using the GE INCELL 2200 High Content Imaging System (Cytiva) and analyzed using the InCell Investigator software. Mitotic cells were identified by high pHH3 staining and were scored as multipolar if they had more than two mitotic spindle poles. The percentage of multipolar mitoses was calculated by dividing the number of multipolar mitoses by the total of all visible mitoses in one well of a 96-well plate (n > 100 for each replicate, two replicates per concentration point).

[5] = test system: centrosome-amplified (4NCA) DLD1 cells; assay: Multipolar spindle assay (4NCA cell line); assay type: cell-based, human
Description: as §2, §3, §4

[6] = Kinetic aqueous solubility (KSol), HPLC-UV; assay type: physicochemical; conditions: PBS buffer pH 7.4, 100 μM solution with 1% DMSO, HPLC with UV detection
[7] = molecular target: T3, HSET in DLD1 4N cells (Homo sapiens, UniProt Q9BW19); assay: Click probe localization target engagement imaging in DLD1 4N cells; assay type: cell-based; conditions: DLD1 4N cells treated with 40
T3 construct: overlapped with the signal from the antibody-probed endogenous HSET protein; endogenous in cells; host or cells: DLD1 4N cells
T3 sequence (Q9BW19 1-673): T2 sequence (Q9BW19 1-673)
Protocol: (§5) The Cy-5 tetrazine dye selected for this experiment is not cell-permeable, thus fixation and permeabilization of cells were necessary prior to its addition. Experiments were conducted in DLD1 4N cells and, as a negative control, isogenic 2N DLD1 HSET KO cells in which HSET expression was prevented by the disruption of the HSET gene using CRISPR. Cells were treated first with proTAME for 2 h to accumulate mitotic events, followed by treatment with the TCO probe 40 for 45 min. The live cells were then fixed and permeabilized before treatment with the tetrazine-Cy5 dye and incubation to allow the IEDDA reaction to occur. Additionally, the cells were stained for the endogenous HSET protein using indirect immunofluorescence and imaged to observe the fluorescence from both the TCO probe and antibody-labeled HSET. […] A 3 μM concentration of the probe 40 gave an acceptable signal-to-noise ratio of around 2:1. Even under these optimal conditions, some residual uniform cytoplasmic Cy5 signal was observed within the cells. However, a clear Cy5 decoration of the mitotic spindle was seen, which overlapped with the signal from the antibody-probed endogenous HSET protein (Figures 2A and S6). […] We observed a 14–17-fold increase in signal in DLD1 4N cells treated with 40 relative to tetrazine-Cy5 alone. […] Comparing the intensity of click probe labeling coincident with the mitotic spindle in DLD1 4N cells to that in DLD1 HSET KO cells after both were treated with 40, we observed a twofold higher signal in the former.
(§6) Direct target engagement of active inhibitor 36 was measured by calculating its capacity to displace the TCO-containing probe 40. 4N DLD1 cells and DLD1 HSET KO cells (negative control) were plated in 96-well ibidi μ-Clear plates (IB-89626, ibidi). Cells were first treated for 2 h with 8 μM pro-TAME (I-440–01M, R&D system) to accumulate mitotic cells and were then treated with 8 μM MG-132 (S2619, SelleckChem) and 3 μM 40, alone or together with active inhibitor 36 in DMEM media with 1% FBS for 45 min. Cells were then washed three times in DMEM, with the second wash being incubated for 10 min to ensure the optimal reduction of unspecific compound binding. After an additional PBS wash, cells were then fixed in 4% PFA/PBS (15670799, Thermo Scientific) prior to incubation with 400 nM tetraszine-Cy5 (CLK-015-05, Jena Biosciences) in 1.5% FBS/PBS for 10 min at room temperature. Cells were permeabilized by the addition of 0.5% TritonX-100/PBS for 5 min before being stained overnight for Pericentrin (1:1500 ab28144 mouse anti-PCNT, Abcam) and KIFC1 (1:1500 12313S rabbit anti-KIFC1, Cell Signaling Technologies). Secondary antibodies Alexa Fluor 488 donkey antirabbit and Alexa Fluor 555 donkey antimouse (1:1500, A21206 and A31570, respectively, Life Technologies) were added together with 1 μg/mL DAPI (D9542, Sigma) in 1.5% FBS in PBS.
(§7) Plates were imaged at 40× using a Zeiss LSM980 confocal microscope with Airyscan 2. The subsequent analysis and quantification were performed using 3D image segmentation with the Arivis4D software. Mitotic cells were segmented by selecting for the highest density (integrated DAPI intensity/total volume), and the mitotic pole areas were segmented using the Pericentrin signal. The signal of the click probe (Cy5) and total KIFC1 (FITC) was measured on the mitotic pole area, and both were normalized to the control condition containing 40 probe alone. The ratio of probe per target (click probe pole integrated intensity signal/KIFC1 pole integrated intensity signal) was used to calculate the occupancy of the probe in the target protein and normalized to the control condition containing 40 probe alone (n > 100 for each replicate, two replicates per concentration point).

[8] = test system: DLD1 HSET KO cells; assay: Click probe localization imaging in DLD1 HSET KO cells (negative control); assay type: cell-based, human; conditions: HSET nonexpressing (DLD1 HSET KO) cells
Protocol: as §5, §6, §7

CCOC(=O)c1sc(NC(=O)CCNC(=O)c2cccc(-c3nnn(C)n3)c2)nc1C [Compound 18, Ethyl 4-Methyl-2-(3-(3-(2-methyl-2H-tetrazol-5-yl)benzamido)propanamido)thiazole-5-carboxylate]
IC50 [1]: > 200000 nM
IC50 [2]: 86 nM
ligand efficiency (LE) [3]: 0.34
lipophilic ligand efficiency (LLE) [3]: 5.4
LE ([3]; LE = −1.4Log(IC50 [M])/number of non-hydrogen atoms (Table 1)): 0.34
LLE ([3]; LLE = −Log(IC50 [M]) – cLogP (MoKa) (Table 1)): 5.4
IC50 ([3]; mean (±SD) n ≥ 3 (Table 4)): 27 nM
IC50 ([3]; mean (±SD) n ≥ 3, >200 from a single determination (Table 1)): 27 nM
% Multipolarity above baseline @ 15 mM (4N cells) ([4]; 15 μM, 4N cells, supplementary CSV): 0%
effect on multipolar mitoses (4N), in words ([4]; 15 μM, non-centrosome amplified DLD1 (4N) cell line): no increases in multipolar mitoses
% multipolarity above baseline @ 15 μM (4N cells) ([4]; 4N DLD1 cells (Table 4)): 0%
% multipolarity above baseline @ 15 μM (4NCA cells) ([5]; 15 μM, 4NCA DLD1 cells (Table 4)): 11%
% multipolarity above baseline @ 15 μM (4NCA cells) ([5]; 15 µM, 4NCA cells, supplementary CSV): 11%
increase in mitotic spindle multipolarity (4NCA) ([5]; 15 μM, centrosome-amplified (4NCA) DLD1 cell line): ~10%

CCCOC(=O)c1sc(NC(=O)C[C@H](CCCN(C)CC#CCNC(=O)O[C@@H]2CC/C=C/CCC2)NC(=O)c2cccc(-c3noc(C)n3)c2)nc1C [Compound 40, propyl 2-((S)-6-((4-(((((S,E)-Cyclooct-4-en-1-yl)oxy)carbonyl)amino)but-2-yn-1-yl)(methyl)amino)-3-(3-(5-methyl-1,2,4-oxadiazol-3-yl)benzamido)hexanamido)-4-methylthiazole-5-carboxylate]
KSol data [6]: 1.1 µM
fold increase in signal relative to tetrazine-Cy5 alone [7]: 14–17 fold
IC50 ([3]; mean (±SD) n ≥ 3 (37 n = 2, 38 single determination) (Table 3)): 39 nM
fold increase in signal relative to tetrazine-Cy5 alone [8]: 7–8 fold

— paper PMC9969401, “Discovery of 2-(3-Benzamidopropanamido)thiazole-5-carboxylate Inhibitors of the Kinesin HSET (KIFC1) and the Development of Cellular Target Engagement Probes” (Journal of Medicinal Chemistry, 2023)
